These are literature values, as cited in US20220031739A1, “ANTI-VIRAL COMPOSITIONS AND METHODS OF USE THEREOF” (Eye Therapies LLC, priority 2020, published 2022).

In the data set the test system is herpes simplex virus ("HSV").

As for `O=c1[nH]c(=O)n([C@H]2C[C@H](O)[C@@H](CO)O2)cc1C(F)(F)F` [Trifluridine, trifluridine], under “likelihood especially high when used for long periods for deeper infections”, the toxicity result was “causes toxicity of both virus and corneal cells”. In addition, for the setting “superficial HSV infections”, the “time to treat superficial HSV infections from the start of treatment” value is recorded as not above 1 week.
